In the supplement of paper PMC10307832:

Compound: COc1cc(Nc2ncc3c(n2)-c2ccc(Cl)cc2C(c2c(F)cccc2OC)=NC3)ccc1C(=O)O [Alisertib]
Assay: relative viability (nuclei count vs DMSO), 5 days (fraction); higher = more cells survive
Summary of the method: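 Five library-drug doses spaced by √10 were pinned onto vehicle-anchored 1536-well plates of lung cancer cell lines that had been kept overnight at 37 °C. Cells went 5 days without medium change, then were fixed, permeabilised and Hoechst-stained together, imaged at 4× and counted by MetaXpress. Viability is the ratio of treated-well to vehicle-well nuclei, taken as a median over plates. Plates required control CV below 25% and at least one doubling.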

| Cell Line | relative viability (0.005 µM) | relative viability (0.01581 µM) | relative viability (0.05 µM) | relative viability (0.1581 µM) | relative viability (0.5 µM) |
| --- | --- | --- | --- | --- | --- |
| 201T | 0.985 | 0.964 | 0.966 | 0.466 | 0.386 |
| A549 | 0.877 | 0.633 | 0.331 | 0.0691 | 0.0535 |
| A-427 | 0.798 | 0.681 | 0.333 | 0.231 | 0.19 |
| ABC-1 | 0.794 | 0.845 | 0.787 | 0.286 | 0.293 |
| BEN | 0.88 | 0.812 | 0.374 | 0.234 | 0.209 |
| CAL-12T | 0.827 | 0.636 | 0.229 | 0.193 | 0.179 |
| COR-L23 | 1.02 | 0.846 | 0.484 | 0.203 | 0.123 |
| COR-L 105 | 0.863 | 0.952 | 0.765 | 0.305 | 0.303 |
| Calu-6 | 0.863 | 0.669 | 0.319 | 0.196 | 0.186 |
| ChaGo-K-1 | 0.84 | 0.855 | 0.348 | 0.245 | 0.223 |
| EBC-1 | 0.875 | 0.806 | 0.373 | 0.183 | 0.162 |
| EKVX | 0.907 | 0.85 | 0.43 | 0.231 | 0.186 |
| EMC-BAC-2 | 0.681 | 0.625 | 0.455 | 0.299 | 0.259 |
| EPLC-272H | 0.834 | 0.758 | 0.646 | 0.127 | 0.139 |
| H3255 | 0.94 | 0.859 | 0.586 | 0.251 | 0.205 |
| HARA | 0.897 | 0.94 | 0.656 | 0.24 | 0.185 |
| HCC-15 | 0.862 | 0.723 | 0.513 | 0.138 | 0.138 |
| HCC-44 | 0.933 | 0.928 | 0.816 | 0.275 | 0.212 |
| HCC-78 | 0.858 | 0.642 | 0.303 | 0.284 | 0.328 |
| HCC-366 | 1 | 0.813 | 0.0889 | 0.0461 | 0.054 |
| HCC-827 | 0.947 | 1.01 | 0.812 | 0.363 | 0.324 |
| HOP-62 | 0.918 | 0.867 | 0.505 | 0.237 | 0.17 |
| IA-LM | 0.795 | 0.823 | 0.569 | 0.357 | 0.0972 |
| LC-2-ad | 0.736 | 0.594 | 0.347 | 0.245 | 0.225 |
| LCLC-97TM1 | 0.931 | 0.791 | 0.496 | 0.137 | 0.121 |
| LCLC-103H | 0.903 | 1.04 | 0.875 | 0.392 | 0.293 |
| LK-2 | 0.962 | 0.853 | 0.497 | 0.297 | 0.202 |

| Cell Line | relative viability (0.005 µM) | relative viability (0.01581 µM) | relative viability (0.05 µM) | relative viability (0.1581 µM) | relative viability (0.5 µM) |
| --- | --- | --- | --- | --- | --- |
| LOU-NH91 | 0.938 | 0.958 | 0.734 | 0.478 | 0.398 |
| LU99A | 0.961 | 0.853 | 0.579 | 0.288 | 0.193 |
| LXF-289 | 0.844 | 0.672 | 0.46 | 0.183 | 0.195 |
| NCI-H23 | 0.752 | 0.529 | 0.272 | 0.217 | 0.197 |
| NCI-H322M | 0.874 | 0.894 | 0.812 | 0.501 | 0.493 |
| NCI-H358 | 0.791 | 0.797 | 0.2 | 0.147 | 0.14 |
| NCI-H441 | 0.839 | 0.662 | 0.201 | 0.179 | 0.188 |
| NCI-H460 | 0.922 | 0.844 | 0.49 | 0.0862 | 0.0474 |
| NCI-H520 | 0.843 | 0.722 | 0.462 | 0.451 | 0.317 |
| NCI-H522 | 0.817 | 1.02 | 0.696 | 0.515 | 0.452 |
| NCI-H596 | 0.882 | 1 | 1.07 | 0.816 | 0.4 |
| NCI-H647 | 0.733 | 0.654 | 0.318 | 0.152 | 0.0801 |
| NCI-H650 | 0.724 | 0.856 | 0.394 | 0.258 | 0.209 |
| NCI-H661 | 1.01 | 0.965 | 0.663 | 0.415 | 0.374 |
| NCI-H727 | 0.817 | 0.929 | 0.542 | 0.384 | 0.401 |
| NCI-H838 | 0.833 | 0.831 | 0.617 | 0.313 | 0.191 |
| NCI-H1299 | 0.992 | 0.963 | 0.585 | 0.415 | 0.233 |
| NCI-H1355 | 0.881 | 0.771 | 0.774 | 0.255 | 0.204 |
| NCI-H1395 | 0.877 | 0.862 | 0.535 | 0.452 | 0.394 |
| NCI-H1437 | 0.896 | 0.836 | 0.605 | 0.344 | 0.203 |
| NCI-H1563 | 0.999 | 0.943 | 0.871 | 0.903 | 0.647 |
| NCI-H1648 | 0.833 | 0.755 | 0.606 | 0.255 | 0.242 |
| NCI-H1650 | 0.846 | 0.736 | 0.289 | 0.192 | 0.224 |
| NCI-H1651 | 0.859 | 0.892 | 0.571 | 0.298 | 0.209 |
| NCI-H1666 | 0.904 | 0.814 | 0.689 | 0.534 | 0.438 |
| NCI-H1703 | 0.871 | 0.721 | 0.57 | 0.241 | 0.143 |
| NCI-H1734 | 0.802 | 0.731 | 0.417 | 0.299 | 0.193 |

| Cell Line | relative viability (0.005 µM) | relative viability (0.01581 µM) | relative viability (0.05 µM) | relative viability (0.1581 µM) | relative viability (0.5 µM) |
| --- | --- | --- | --- | --- | --- |
| NCI-H1755 | 0.939 | 0.963 | 0.805 | 0.386 | 0.36 |
| NCI-H1792 | 0.81 | 0.68 | 0.538 | 0.232 | 0.109 |
| NCI-H1793 | 0.745 | 0.473 | 0.411 | 0.264 | 0.233 |
| NCI-H1915 | 0.816 | 0.773 | 0.572 | 0.383 | 0.25 |
| NCI-H1944 | 0.923 | 1.08 | 0.789 | 0.39 | 0.273 |
| NCI-H1975 | 0.85 | 0.828 | 0.565 | 0.317 | 0.207 |
| NCI-H1993 | 0.906 | 0.92 | 0.621 | 0.468 | 0.516 |
| NCI-H2009 | 0.926 | 0.97 | 0.513 | 0.303 | 0.254 |
| NCI-H2023 | 0.838 | 0.727 | 0.566 | 0.227 | 0.109 |
| NCI-H2085 | 0.936 | 0.955 | 0.572 | 0.327 | 0.385 |
| NCI-H2087 | 0.941 | 0.807 | 0.312 | 0.176 | 0.201 |
| NCI-H2126 | 0.938 | 0.941 | 0.699 | 0.361 | 0.314 |
| NCI-H2170 | 0.94 | 0.883 | 0.815 | 0.423 | 0.323 |
| NCI-H2228 | 0.778 | 0.85 | 0.531 | 0.158 | 0.189 |
| NCI-H2342 | 0.812 | 0.978 | 0.776 | 0.551 | 0.42 |
| NCI-H2347 | 1.01 | 0.906 | 0.862 | 0.703 | 0.428 |
| NCI-H2405 | 0.952 | 0.967 | 0.833 | 0.41 | 0.282 |
| NCI-H3122 | 0.943 | 0.977 | 0.831 | 0.405 | 0.295 |
| PC-3 [JPC-3] | 0.974 | 0.976 | 0.932 | 0.48 | 0.398 |
| PC-14 | 0.827 | 0.846 | 0.584 | 0.156 | 0.0817 |
| RERF-LC-KJ | 0.929 | 0.792 | 0.597 | 0.254 | 0.247 |
| SK-LU-1 | 0.856 | 0.802 | 0.447 | 0.333 | 0.232 |
| SK-MES-1 | 0.913 | 0.947 | 0.561 | 0.326 | 0.16 |
| SW 900 | 0.635 | 0.81 | 0.506 | 0.264 | 0.24 |
| SW 1573 | 0.919 | 0.644 | 0.372 | 0.213 | 0.147 |
| UMC-11 | 0.437 | 0.3 | 0.211 | 0.176 | 0.186 |
